Experimental data reported in patent US10517806B2, “Antimicrobial foaming compositions containing cationic active ingredients” (ECOLAB USA INC., priority 2014, dated 2019).

Legend:
S. aureus (ATCC # 6538) = experiment: Time kill activity (ASTM E 2315), log reduction; type: cell-based; details: 30 seconds
Description: (§1) In this test, a diluted aliquot of the composition is brought into contact with a known population of test bacteria for a specified time period at a specified temperature. The test composition is neutralized at the end of the time period, which arrests the antimicrobial activity of the composition. The percent or, alternatively, log reduction from the original bacteria population is calculated. In general, the time kill method is known to those skilled in the art. […] The choice of which concentration to use is at the discretion of the investigator, and suitable concentrations are readily determined by those skilled in the art. All testing if performed in triplicate, the results are combined, and the average log reduction is reported. • (c) The choice of contact time period also is at the discretion of the investigator. Any contact time period can be chosen. Typical contact times range from 10 second to 5 minutes, with 30 seconds and 1 minute being typical contact times. The contact temperature also can be any temperature, typically room temperature, or about 25 degrees Celsius. • (d) The microbial suspension, or test inoculum, is prepared by growing a microbial culture on any appropriate solid media (e.g., agar). The microbial population then is washed from the agar with sterile physiological saline and the population of the microbial suspension is adjusted to about 10^8 colony forming units per ml (cfu/ml). • (e) The table below lists the test microbial cultures used in the following tests and includes the name of the bacteria, the ATCC (American Type Culture Collection) identification number, and the abbreviation for the name of the organism used hereafter.
(§2) The log reduction is calculated using the formula: Log reduction=log10(numbers control)−log10(test sample survivors). Foam Height Determination

E. coli (ATCC # 112229) = experiment: Time kill activity (ASTM E 2315), log reduction; type: cell-based, Escherichia coli; details: 30 seconds
Description: as §1, §2

[1] = active at 2% w/w in the composition of formulation example 15, pH 6.25
[2] = active at 4% w/w in the composition of formulation example 15, pH 6.25
[3] = active at 0.65% w/w in the composition of formulation example 15, pH 6.25

Compound	S. Aureus log reduction (S. aureus (ATCC # 6538); [1])	S. Aureus log reduction (S. aureus (ATCC # 6538); [2])	E. coli log reduction (E. coli (ATCC # 112229); [1])	E. coli log reduction (E. coli (ATCC # 112229); [2])	S. Aureus log reduction (S. aureus (ATCC # 6538); [3])	E. coli log reduction (E. coli (ATCC # 112229); [3])
N=C(NCCCCCCNC(=N)NC(=N)Nc1ccc(Cl)cc1)NC(=N)Nc1ccc(Cl)cc1.O=C(O)[C@H](O)[C@@H](O)[C@H](O)[C@H](O)CO.O=C(O)[C@H](O)[C@@H](O)[C@H](O)[C@H](O)CO [Chlorohexidine Gluconate]	>5.39	>5.39	>5.73	>5.73		
CC(C)(C)CC(C)(C)c1ccc(OCCOCC[N+](C)(C)Cc2ccccc2)cc1 [Benzethonium Chloride]					>5.39	>5.73
CCCCCCCCCC[N+](C)(C)CCCCCCCCCC.[Cl-] [Didecyl Dimethyl Ammonium Chloride]					>5.39	>5.73
Polyhexamethylene Biguanide					3.10	>5.73
